# Measurements published in patent publication US20100184704A1, “USE OF THE PEPTIDE GLY-ARG-GLY-ASP-ASN-PRO AS A THERAPEUTIC AGENT” (priority 2007, published 2010).
# Where a SMILES comes first, the peptide text is derived from it.
# Test system: drug-resistant Mycobacterium tuberculosis
# Details: 5 micrograms per ml
smiles,measurement,value
"N=C(N)NCCC[C@H](NC(=O)CN)C(=O)NCC(=O)N[C@@H](CC(=O)O)C(=O)N[C@@H](CC(N)=O)C(=O)N1CCC[C@H]1C(=O)O [Gly-Arg-Gly-Asp-Asn-Pro, Gly-Arg-Gly-Asp-Asn-Pro-OH] (H-GRGDNP-OH)",% inhibition,0.0%
